These are literature values, as cited in paper PMC11675001, “Monovalent and Divalent Designs of Copper Radiotheranostics Targeting Fibroblast Activation Protein in Cancer” (Cancers, 2024).

SMILES strings stand for the structures.

The conditions of series [1]: after 3 h; ref European Journal of Nuclear Medicine and Molecular Imaging (2022): 1-11 [3]; Pharmaceuticals 16, no. 8 (2023): 1138 [4].
For series [2] the following is noted: ref European Journal of Nuclear Medicine and Molecular Imaging (2022): 1-11 [3]; Pharmaceuticals 16, no. 8 (2023): 1138 [4].

`CN(CCCN1CCN(C(=O)CN2CCN(CC(=O)[O-])CCN(CC(=O)[O-])CCN(CC(=O)[O-])CC2)CC1)c1ccc2nccc(C(=O)NCC(=O)N3CC(F)(F)C[C@H]3C#N)c2c1.[68Ga+3]` [[68Ga]Ga-FAPI-46]: in series [1], the Stability was > 95.3%. Further, the “Partition coefficient (LogP)” value in series [2] was −3.57.
